Results from the NIST ThermoML archive (doi:10.1016/j.tca.2015.01.022).
“And” between values parts separate entries of the source, which are not always exact repeats. Equal values may be shown once. Numbers after ± are expanded uncertainties.

Experiment: molar heat capacity at constant pressure
Conditions: 101.33 kPa, Small (less than 1 g) adiabatic calorimetry

CCOS(=O)(=O)[O-].CCn1cc[n+](C)c1 [1-ethyl-3-methylimidazolium ethyl sulfate]
Conditions	molar heat capacity at constant pressure
180.75 K, Glass	245 ± 1.3 J/K/mol
181.34 K, Glass	247.6 ± 1.3 J/K/mol
182.03 K, Glass	250.7 ± 1.3 J/K/mol
182.57 K, Glass	253.8 ± 1.3 J/K/mol
183.25 K, Glass	259.2 ± 1.4 J/K/mol
183.91 K, Glass	266.1 ± 1.4 J/K/mol
184.33 K, Glass	269.6 ± 1.4 J/K/mol
185.05 K, Liquid	286.4 ± 1.5 J/K/mol
185.68 K, Liquid	306.2 ± 1.6 J/K/mol
185.91 K, Liquid	312.8 ± 1.7 J/K/mol
186.66 K, Liquid	340.5 ± 1.8 J/K/mol
187.36 K, Liquid	351.6 ± 1.8 J/K/mol and 351.8 ± 1.8 J/K/mol
188.23 K, Liquid	351.6 ± 1.8 J/K/mol
188.86 K, Liquid	353 ± 1.8 J/K/mol
189.2 K, Liquid	353 ± 1.8 J/K/mol
189.84 K, Liquid	354 ± 1.8 J/K/mol
190 K, Liquid	354.1 ± 1.8 J/K/mol
190.38 K, Liquid	354.4 ± 1.8 J/K/mol
191.46 K, Liquid	354.4 ± 1.8 J/K/mol
192.04 K, Liquid	354.7 ± 1.8 J/K/mol
193.08 K, Liquid	354.7 ± 1.8 J/K/mol
193.85 K, Liquid	354.7 ± 1.8 J/K/mol
194.7 K, Liquid	354.7 ± 1.8 J/K/mol
195.65 K, Liquid	354.9 ± 1.8 J/K/mol
196.33 K, Liquid	354.9 ± 1.8 J/K/mol
197.47 K, Liquid	355.1 ± 1.8 J/K/mol
197.95 K, Liquid	355.1 ± 1.8 J/K/mol
199.29 K, Liquid	355.4 ± 1.8 J/K/mol
199.58 K, Liquid	355.4 ± 1.8 J/K/mol
200 K, Liquid	355.5 ± 1.8 J/K/mol
201.11 K, Liquid	355.6 ± 1.8 J/K/mol
201.27 K, Liquid	355.6 ± 1.8 J/K/mol
201.65 K, Liquid	355.9 ± 1.8 J/K/mol
202.93 K, Liquid	356.1 ± 1.8 J/K/mol
203 K, Liquid	355.9 ± 1.8 J/K/mol
203.57 K, Liquid	356.1 ± 1.8 J/K/mol
204.74 K, Liquid	356.1 ± 1.8 J/K/mol
204.76 K, Liquid	356.6 ± 1.8 J/K/mol
205.5 K, Liquid	356.3 ± 1.8 J/K/mol
206.48 K, Liquid	356.6 ± 1.8 J/K/mol
206.59 K, Liquid	356.8 ± 1.8 J/K/mol
207.44 K, Liquid	356.8 ± 1.8 J/K/mol
208.23 K, Liquid	356.8 ± 1.8 J/K/mol
208.43 K, Liquid	357 ± 1.8 J/K/mol
209.37 K, Liquid	357.3 ± 1.8 J/K/mol
209.97 K, Liquid	357 ± 1.8 J/K/mol
210 K, Liquid	357.2 ± 1.8 J/K/mol
210.26 K, Liquid	357.3 ± 1.8 J/K/mol
211.31 K, Liquid	357.5 ± 1.8 J/K/mol
211.72 K, Liquid	357.5 ± 1.8 J/K/mol
212.11 K, Liquid	357.7 ± 1.8 J/K/mol
213.25 K, Liquid	358 ± 1.8 J/K/mol
213.47 K, Liquid	357.7 ± 1.8 J/K/mol
213.95 K, Liquid	358 ± 1.8 J/K/mol
215.19 K, Liquid	358.2 ± 1.8 J/K/mol
215.23 K, Liquid	358 ± 1.8 J/K/mol
215.8 K, Liquid	358.5 ± 1.8 J/K/mol
217.12 K, Liquid	358.7 ± 1.8 J/K/mol
217.65 K, Liquid	358.7 ± 1.8 J/K/mol
219.06 K, Liquid	359.2 ± 1.8 J/K/mol
219.5 K, Liquid	359.2 ± 1.8 J/K/mol
220 K, Liquid	359.2 ± 1.8 J/K/mol
221 K, Liquid	359.4 ± 1.8 J/K/mol
221.36 K, Liquid	359.6 ± 1.8 J/K/mol
222.94 K, Liquid	359.9 ± 1.8 J/K/mol
223.21 K, Liquid	359.9 ± 1.8 J/K/mol
224.88 K, Liquid	360.3 ± 1.9 J/K/mol
225.07 K, Liquid	360.3 ± 1.9 J/K/mol
226.82 K, Liquid	361.1 ± 1.9 J/K/mol
226.93 K, Liquid	360.8 ± 1.9 J/K/mol
228.76 K, Liquid	361.3 ± 1.9 J/K/mol
228.8 K, Liquid	361.3 ± 1.9 J/K/mol
230 K, Liquid	361.6 ± 1.8 J/K/mol
230.66 K, Liquid	361.8 ± 1.9 J/K/mol
230.7 K, Liquid	361.8 ± 1.9 J/K/mol
232.53 K, Liquid	362.2 ± 1.9 J/K/mol
232.64 K, Liquid	362.2 ± 1.9 J/K/mol
234.39 K, Liquid	362.7 ± 1.9 J/K/mol
234.58 K, Liquid	362.7 ± 1.9 J/K/mol
236.26 K, Liquid	363.2 ± 1.9 J/K/mol
236.53 K, Liquid	363.4 ± 1.9 J/K/mol
238.13 K, Liquid	363.9 ± 1.9 J/K/mol
238.47 K, Liquid	363.9 ± 1.9 J/K/mol
240 K, Liquid	364.3 ± 1.9 J/K/mol
240.01 K, Liquid	364.4 ± 1.9 J/K/mol
240.41 K, Liquid	364.6 ± 1.9 J/K/mol
241.88 K, Liquid	364.8 ± 1.9 J/K/mol
242.36 K, Liquid	365.1 ± 1.9 J/K/mol
243.76 K, Liquid	365.3 ± 1.9 J/K/mol
244.3 K, Liquid	365.5 ± 1.9 J/K/mol
245.64 K, Liquid	365.8 ± 1.9 J/K/mol
246.24 K, Liquid	366.2 ± 1.9 J/K/mol
247.52 K, Liquid	366.5 ± 1.9 J/K/mol
248.19 K, Liquid	366.7 ± 1.9 J/K/mol
249.39 K, Liquid	367 ± 1.9 J/K/mol
250 K, Liquid	367.1 ± 1.9 J/K/mol
250.13 K, Liquid	367.4 ± 1.9 J/K/mol
251.27 K, Liquid	367.4 ± 1.9 J/K/mol
252.07 K, Liquid	367.9 ± 1.9 J/K/mol
253.16 K, Liquid	368.1 ± 1.9 J/K/mol
254.02 K, Liquid	368.6 ± 1.9 J/K/mol
255.04 K, Liquid	368.6 ± 1.9 J/K/mol
255.96 K, Liquid	369.1 ± 1.9 J/K/mol
256.92 K, Liquid	369.1 ± 1.9 J/K/mol
257.91 K, Liquid	369.8 ± 1.9 J/K/mol
258.8 K, Liquid	369.8 ± 1.9 J/K/mol
259.85 K, Liquid	370.3 ± 1.9 J/K/mol
260 K, Liquid	370.1 ± 1.9 J/K/mol
260.69 K, Liquid	370.3 ± 1.9 J/K/mol
261.8 K, Liquid	370.7 ± 1.9 J/K/mol
263.74 K, Liquid	371.4 ± 1.9 J/K/mol
265.69 K, Liquid	372.2 ± 1.9 J/K/mol
267.63 K, Liquid	372.6 ± 1.9 J/K/mol
269.58 K, Liquid	373.3 ± 1.9 J/K/mol
270 K, Liquid	373.3 ± 1.9 J/K/mol
271.52 K, Liquid	373.8 ± 1.9 J/K/mol
273.46 K, Liquid	374.3 ± 1.9 J/K/mol
275.41 K, Liquid	375 ± 1.9 J/K/mol
277.35 K, Liquid	375.7 ± 1.9 J/K/mol
279.3 K, Liquid	376.2 ± 1.9 J/K/mol
280 K, Liquid	376.4 ± 1.9 J/K/mol
281.24 K, Liquid	376.6 ± 1.9 J/K/mol
283.19 K, Liquid	377.4 ± 1.9 J/K/mol
285.13 K, Liquid	378.1 ± 1.9 J/K/mol
287.08 K, Liquid	378.3 ± 1.9 J/K/mol
289.02 K, Liquid	379.2 ± 1.9 J/K/mol
290 K, Liquid	379.6 ± 1.9 J/K/mol
290.96 K, Liquid	380 ± 1.9 J/K/mol
292.91 K, Liquid	380.7 ± 2 J/K/mol
294.85 K, Liquid	381.4 ± 2 J/K/mol
296.79 K, Liquid	382.1 ± 2 J/K/mol
298.15 K, Liquid	382.8 ± 1.9 J/K/mol
298.74 K, Liquid	383 ± 2 J/K/mol
300 K, Liquid	383.6 ± 1.9 J/K/mol
300.68 K, Liquid	383.7 ± 2 J/K/mol
302.62 K, Liquid	384.7 ± 2 J/K/mol
304.57 K, Liquid	385.4 ± 2 J/K/mol
306.51 K, Liquid	386.3 ± 2 J/K/mol
308.45 K, Liquid	387.3 ± 2 J/K/mol
310 K, Liquid	388 ± 2 J/K/mol
310.39 K, Liquid	388 ± 2 J/K/mol
312.34 K, Liquid	388.9 ± 2 J/K/mol
314.28 K, Liquid	389.6 ± 2 J/K/mol
316.22 K, Liquid	390.6 ± 2 J/K/mol
318.17 K, Liquid	391.5 ± 2 J/K/mol
320 K, Liquid	392.6 ± 2 J/K/mol
320.11 K, Liquid	392.5 ± 2 J/K/mol
322.05 K, Liquid	393.7 ± 2 J/K/mol
324 K, Liquid	394.4 ± 2 J/K/mol
325.94 K, Liquid	395.3 ± 2 J/K/mol
327.89 K, Liquid	396.3 ± 2 J/K/mol
329.83 K, Liquid	397.2 ± 2 J/K/mol
330 K, Liquid	397.3 ± 2 J/K/mol
331.77 K, Liquid	398.1 ± 2 J/K/mol
333.72 K, Liquid	399.1 ± 2 J/K/mol
335.66 K, Liquid	400.3 ± 2 J/K/mol
337.61 K, Liquid	401.5 ± 2.1 J/K/mol
339.55 K, Liquid	402.2 ± 2.1 J/K/mol
340 K, Liquid	402.3 ± 2 J/K/mol
341.5 K, Liquid	403.1 ± 2.1 J/K/mol
343.44 K, Liquid	404.3 ± 2.1 J/K/mol
345.39 K, Liquid	405 ± 2.1 J/K/mol
347.33 K, Liquid	405.9 ± 2.1 J/K/mol
349.28 K, Liquid	407.1 ± 2.1 J/K/mol
350 K, Liquid	407.5 ± 2.1 J/K/mol
351.22 K, Liquid	408.1 ± 2.1 J/K/mol
353.17 K, Liquid	409.3 ± 2.1 J/K/mol
355.11 K, Liquid	410.2 ± 2.1 J/K/mol
357.06 K, Liquid	411.1 ± 2.1 J/K/mol
359 K, Liquid	412.1 ± 2.1 J/K/mol
360 K, Liquid	412.8 ± 2.1 J/K/mol
360.94 K, Liquid	413.3 ± 2.1 J/K/mol
362.88 K, Liquid	414.2 ± 2.1 J/K/mol
364.83 K, Liquid	415.2 ± 2.1 J/K/mol
366.77 K, Liquid	416.3 ± 2.1 J/K/mol
370 K, Liquid	418.4 ± 2.2 J/K/mol
